How the values were obtained:
human TLR7 = molecular target: T1, human TLR7 (Homo sapiens, UniProt Q9NYK1); assay: TLR7 cellular reporter assay (HEK293, NFκB-luc); format: cell-based; details: HEK293 cells transfected with CMV-TLR7 and NFκB-luc, 6 hours incubation; lowest effective concentration
T1 construct: expressed in transfected cells; host or cells: HEK293 cells, transient transfection with CMV-TLR7 plasmid and NFκB-luc plasmid
T1 sequence (Q9NYK1 27-1049): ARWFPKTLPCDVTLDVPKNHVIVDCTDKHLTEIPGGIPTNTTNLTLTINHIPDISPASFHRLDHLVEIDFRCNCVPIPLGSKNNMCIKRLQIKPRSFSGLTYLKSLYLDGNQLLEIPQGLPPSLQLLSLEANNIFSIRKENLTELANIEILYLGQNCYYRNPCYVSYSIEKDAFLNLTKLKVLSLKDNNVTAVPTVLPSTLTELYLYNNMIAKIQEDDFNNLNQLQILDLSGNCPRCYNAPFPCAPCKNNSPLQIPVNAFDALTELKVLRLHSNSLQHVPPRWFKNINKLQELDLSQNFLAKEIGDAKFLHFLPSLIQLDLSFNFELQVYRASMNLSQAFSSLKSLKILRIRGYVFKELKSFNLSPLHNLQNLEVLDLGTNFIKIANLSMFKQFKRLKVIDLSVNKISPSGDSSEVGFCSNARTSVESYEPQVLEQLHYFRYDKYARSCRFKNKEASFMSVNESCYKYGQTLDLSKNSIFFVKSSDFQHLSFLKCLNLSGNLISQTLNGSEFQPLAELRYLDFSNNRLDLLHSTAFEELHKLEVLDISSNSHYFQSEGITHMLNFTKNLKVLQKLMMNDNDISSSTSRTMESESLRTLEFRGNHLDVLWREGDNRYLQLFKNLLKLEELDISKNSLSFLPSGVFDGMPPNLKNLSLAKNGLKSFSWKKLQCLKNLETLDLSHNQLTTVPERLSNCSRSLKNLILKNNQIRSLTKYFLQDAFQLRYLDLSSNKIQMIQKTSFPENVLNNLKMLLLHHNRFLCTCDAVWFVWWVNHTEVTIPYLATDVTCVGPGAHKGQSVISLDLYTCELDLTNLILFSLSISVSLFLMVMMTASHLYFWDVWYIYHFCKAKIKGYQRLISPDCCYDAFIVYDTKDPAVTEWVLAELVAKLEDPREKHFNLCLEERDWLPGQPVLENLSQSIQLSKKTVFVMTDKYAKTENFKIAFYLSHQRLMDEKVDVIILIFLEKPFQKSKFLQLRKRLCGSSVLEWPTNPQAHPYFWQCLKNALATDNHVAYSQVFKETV
Method: The ability of compounds to activate human TLR7 and/or TLR8 was assessed in a cellular reporter assay using HEK293 cells transiently transfected with a TLR7 or TLR8 expression vector and NFκB-luc reporter construct.
Briefly, HEK293 cells were grown in culture medium (DMEM supplemented with 10% FCS and 2 mM Glutamine). […] Thirty microliters of cells were then dispensed into each well in 384-well plates, where 10 μL of compound in 4% DMSO was already present. Following 6 hours incubation at 37° C., 5% CO2, the luciferase activity was determined by adding 15 μL of Steady Lite Plus substrate (Perkin Elmer) to each well and readout performed on a ViewLux ultraHTS microplate imager (Perkin Elmer). Dose response curves were generated from measurements performed in quadruplicates.

human TLR8 = molecular target: T2, human TLR8 (Homo sapiens, UniProt Q9NR97); assay: TLR8 cellular reporter assay (HEK293, NFκB-luc); format: cell-based; details: HEK293 cells transfected with CMV-TLR8 and NFκB-luc, 6 hours incubation; lowest effective concentration
T2 construct: expressed in transfected cells; host or cells: HEK293 cells, transient transfection with TLR8 plasmid and NFκB-luc plasmid
T2 sequence (Q9NR97 27-1041): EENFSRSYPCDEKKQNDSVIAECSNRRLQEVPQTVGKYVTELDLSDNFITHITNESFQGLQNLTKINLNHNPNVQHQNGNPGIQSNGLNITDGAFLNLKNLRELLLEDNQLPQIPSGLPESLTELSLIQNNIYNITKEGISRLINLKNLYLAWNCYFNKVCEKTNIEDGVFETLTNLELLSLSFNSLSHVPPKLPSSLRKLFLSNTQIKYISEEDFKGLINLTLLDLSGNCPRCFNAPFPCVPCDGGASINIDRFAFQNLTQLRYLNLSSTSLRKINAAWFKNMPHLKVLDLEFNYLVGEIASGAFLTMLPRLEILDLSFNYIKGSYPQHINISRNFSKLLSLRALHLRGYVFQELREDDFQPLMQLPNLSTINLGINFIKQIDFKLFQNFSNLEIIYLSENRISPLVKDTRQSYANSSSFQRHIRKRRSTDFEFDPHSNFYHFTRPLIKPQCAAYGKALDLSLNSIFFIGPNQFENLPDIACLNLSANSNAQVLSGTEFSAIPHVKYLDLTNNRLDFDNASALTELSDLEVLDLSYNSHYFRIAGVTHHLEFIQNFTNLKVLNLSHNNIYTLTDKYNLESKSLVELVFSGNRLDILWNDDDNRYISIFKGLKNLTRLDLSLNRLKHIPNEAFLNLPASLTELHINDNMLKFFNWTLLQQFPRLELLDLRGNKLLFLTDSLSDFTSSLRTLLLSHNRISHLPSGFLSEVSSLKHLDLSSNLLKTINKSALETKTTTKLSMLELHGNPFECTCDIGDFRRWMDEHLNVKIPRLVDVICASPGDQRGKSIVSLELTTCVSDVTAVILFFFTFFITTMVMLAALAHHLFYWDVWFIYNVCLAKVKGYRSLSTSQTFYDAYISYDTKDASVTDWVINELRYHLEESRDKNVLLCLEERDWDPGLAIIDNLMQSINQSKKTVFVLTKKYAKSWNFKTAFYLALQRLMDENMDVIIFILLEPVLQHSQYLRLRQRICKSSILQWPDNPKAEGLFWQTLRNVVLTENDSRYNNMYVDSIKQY
In short: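 HEK293 cells transiently transfected with receptor expression vector plus NFκB-luciferase reporter, exposed to compound (added in 4% DMSO) for 6 hours at 37° C, 5% CO2. Luciferase activity measured by luminescence; dose-response curves from quadruplicate measurements.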

[1] = test system: interferon-stimulated responsive elements (ISRE); assay: Activation of ISRE promoter elements by conditioned media from PBMC (HEK-ISREluc); format: cell-based, human; details: Homo sapiens; conditioned media from PBMC transferred to HEK-ISREluc cells, 24 hours; lowest effective concentration; read-out: PBMC LEC
Method: The potential of compounds to induce IFN-I was also evaluated by measuring the activation of interferon-stimulated responsive elements (ISRE) by conditioned media from PBMC. The ISRE element of sequence […] (SEQ. ID NO:1) is highly responsive to the STAT1-STAT2-IRF 9 transcription factor, activated upon binding of IFN-I to their receptor IFNAR (Clontech, PT3372-5W). […] A HEK293 cell line stably transfected with pISRE-Luc (HEK-ISREluc) was established to profile of the conditioned PBMC cell culture media.
Briefly, PBMCs were prepared from buffy coats of at least two donors using a standard Ficoll centrifugation protocol. Isolated PBMCs were resuspended in RPMI medium supplemented with 10% human AB serum and 2×10^5 cells/well were dispensed into 384-well plates containing compounds (70 μL total volume). After overnight incubation, 10 μL of supernatant was transferred to 384-well plates containing 5×10^3 HEK-ISREluc cells/well in 30 μL (plated the day before). Following 24 hours of incubation, activation of the ISRE elements was measured by assaying luciferase activity using 40 μL/well Steady Lite Plus substrate (Perkin Elmer) and measured with ViewLux ultraHTS microplate imager (Perkin Elmer). The stimulating activity of each compound on the HEK-ISREluc cells was reported as LEC value, defined as the compound concentration applied to the PBMCs resulting in a luciferase activity at least two fold above the standard deviation of the assay. The LEC in turn indicates the degree of ISRE activation on transfer of a defined amount of PBMC culture medium. Recombinant interferon α-2a (Roferon-A) was used as a standard control compound.

| TLR7 LEC (human TLR7) [µM] | TLR8 LEC (human TLR8) [µM] | SMILES | minimal effective concentration [1] [µM] |
| --- | --- | --- | --- |
| 0.06 | 0.9934 | CCCCNc1nc(N)nc2ccn(CC3CCC3)c12 [Compound 62] | 0.06 |
| 0.67 | >25 | CCCCNc1nc(N)nc2cc(C)n(Cc3ccccc3)c12 [Compound 63] | 0.18 |
| 0.1687 | >25 | CCCCNc1nc(N)nc2ccn(Cc3nccc4ccccc34)c12 [Compound 65] | 0.08 |
| 2.57 | 3.96 | CCCCNc1nc(N)nc2ccn(CCn3cccc3)c12 [Compound 66] | 0.91 |
| 0.004 | 0.71 | CCCCNc1nc(N)nc2ccn(Cc3ccccc3OC)c12 [Compound 69] | 0.002 |
| 0.32 | 4.68 | CCCCNc1nc(N)nc2ccn(CC3CCCO3)c12 (stereo not drawn) [Compound 71] | 0.24 |
| 0.28 | >25 | CCCCNc1nc(N)nc2ccn(Cc3cccs3)c12 [Compound 73] | 0.13 |
| 0.10 | >25 | CCCC(C)Nc1nc(N)nc2ccn(Cc3ccccc3F)c12 (stereo not drawn) [Compound 74] | 0.04 |
| 0.04 | >25 | CCCC(C)Nc1nc(N)nc2ccn(Cc3ccc(OC)cc3)c12 (stereo not drawn) [Compound 75] | 0.04 |
| 0.01 | 4.09 | CCCC[C@@H](CCO)Nc1nc(N)nc2ccn(Cc3ccccc3F)c12 [Compound 76] | 0.007 |
| 0.008 | 2.62 | CCCC[C@@H](CCO)Nc1nc(N)nc2ccn(Cc3ccc(OC)cc3)c12 [Compound 77] | 0.002 |
| 0.0004 | 0.5577 | CCCC[C@@H](CCO)Nc1nc(N)nc2ccn(Cc3ccccc3OC)c12 [Compound 78] | < 0.0004 |
| 0.004 | 0.94 | CCCC(C)Nc1nc(N)nc2ccn(Cc3ccccc3OC)c12 (stereo not drawn) [Compound 79] | 0.001 |
| <0.0006 | 0.689 | CCC[C@@H](CCO)Nc1nc(N)nc2ccn(Cc3ccccc3OC)c12 [Compound 80] | < 0.0004 |
| 0.01 | 22.02 | CCC[C@@H](CCO)Nc1nc(N)nc2ccn(Cc3ccccc3F)c12 [Compound 81] | 0.002 |
| 0.07 | 0.57 | CCC[C@@H](CCO)Nc1nc(N)nc2ccn(CC3CCC3)c12 [Compound 82] | 0.01 |
| 1.57 | >25 | CCCCn1ccc2nc(N)nc(NCc3ccccc3)c21 [Compound 83] | 2.3 |
| 0.04 | 1.14 | CCCC[C@@H](CCO)Nc1nc(N)nc2ccn(CC3CCC3)c12 [Compound 84] | 0.01 |
| 0.03 | 10.14 | CCC[C@@H](CCO)Nc1nc(N)nc2ccn(Cc3cscn3)c12 [Compound 85] | 0.002 |
| 1.63 | >25 | CCCCNc1nc(N)nc2cc(F)n(Cc3ccccc3)c12 [Compound 86] | 0.47 |
| 0.01 | >25 | CCC[C@@H](CCO)Nc1nc(N)nc2ccn(CC3CCCCC3)c12 [Compound 87] | 0.008 |
| 0.01 | 2.46 | CCCC[C@@H](CCO)Nc1nc(N)nc2ccn(Cc3cscn3)c12 [Compound 88] | 0.0006 |
| 0.03 | >25 | Cc1cccc(Cn2ccc3nc(N)nc(NCc4cc(C)on4)c32)n1 [Compound 90] | 0.01 |
| 0.05 | 2.17 | CCCC[C@@H](CCO)Nc1nc(N)nc2ccn(CC3CCCO3)c12 (stereo partly drawn) [Compound 91] | 0.02 |
| 0.10 | 4.46 | CCC[C@@H](CCO)Nc1nc(N)nc2ccn(CC3CCCO3)c12 (stereo partly drawn) [Compound 92] | 0.02 |
| 0.26 | >25 | CCCCNc1nc(N)nc2c(F)cn(Cc3ccccc3)c12 [Compound 93] | 0.12 |

| SMILES | TLR7 LEC (human TLR7) [µM] | TLR8 LEC (human TLR8) [µM] | minimal effective concentration [1] [µM] |
| --- | --- | --- | --- |
| CCCCNc1nc(N)nc2ccn(CCN3CCOCC3)c12 [Compound 67] | 0.056 | 6.71 | 0.04 |
